Data from patent publication US8097590B2, “α-MSH-antagonist dipeptide conjugates” (Centre National de la Recherche Scientifique (CNRS), priority 2004, dated 2012).
Like-named read-outs stand apart in the source and are kept apart here. Non-standard residues stand in square brackets, D forms with d. Residues, ends and D or L forms follow the SMILES beside them. No end group written: not given here. *: point of attachment. Palmitoyl = CCCCCCCCCCCCCCCC(=O)*

Legend:
human MC1 receptor = target: T1, human MC1 receptor (Homo sapiens, UniProt Q01726); test: Inhibition of AMPc production induced by α-MSH on M4Be cells; assay type: cell-based; details: M4Be human cell line, 5×10^−8 M α-MSH
T1 construct: endogenous in cells; host or cells: M4Be human melanoma (melanocyte) cell line
T1 sequence (Q01726 whole entry): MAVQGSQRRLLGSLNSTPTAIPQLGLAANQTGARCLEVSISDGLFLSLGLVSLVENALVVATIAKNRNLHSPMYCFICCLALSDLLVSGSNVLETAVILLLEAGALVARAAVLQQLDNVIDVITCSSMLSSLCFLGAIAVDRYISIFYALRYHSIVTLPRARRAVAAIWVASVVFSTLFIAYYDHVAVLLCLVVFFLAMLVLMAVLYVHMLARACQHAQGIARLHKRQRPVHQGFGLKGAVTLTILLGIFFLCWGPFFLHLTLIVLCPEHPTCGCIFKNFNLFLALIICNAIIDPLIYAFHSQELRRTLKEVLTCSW
Procedure: Five Palm-dipeptides according to this invention were introduced at different concentrations and each measurement was made in triplicate. Two or three series of experiments were made.
The M4Be human cell line (Jacubovich et al. Cancer Immunol. Immunother. 1979, 7, 59-64), a melanocytes cell line capable of producing melanines, was used in this study to determine the values of CI50.
The cells were maintained in the Dulbecco modified Eagle medium with 10% of foetal calf serum (FCS), 1 mM of glutamine, 100 U/ml of penicillin and 10^−4 g/ml of streptomycine.
All cell lines were maintained at 37° C. in an atmosphere with 5% of CO2 and cell culture media were renewed every two days. The cells were applied in contact with a plate with 96 wells (Nunc, Roskilde) 24 hours before contact of dipeptides according to the invention.
Cells applied in contact the day before with 8×10^4 cells per well were put in the presence of one of the five dipeptide conjugates according to the invention at various concentrations for 10 minutes at 37° C. with 5×10^−8 M of α-MSH. After this time, the lysis of the cells was made and the AMPc content was measured using a connection test box by competition (RPN225, Amersham Pharmacia Biotech). Each independent experiment was carried out at least twice in triplicate.
The peptidic activity was determined with reference to the AMPc content synthesized by untreated cells and the production of AMPc induced by α-MSH alone. The curves were adjusted and the values of CI50 were determined with non-linear regression in the GraphPad Prism (GraphPad software, San Diego, Calif., United States).

receptor MC1 [1] = details: Proc. Natl. Acad. Sci. (1995), 92, result in words; cited from earlier work
receptor MC1 [2] = details: Jayawickreme et al., J. Biol. Chem. 1994; cited from earlier work
[3] = 10 minutes at 37° C., experiment 1, read-out: CI50 (μM) exp1
[4] = 10 minutes at 37° C., experiment 2, read-out: CI50 (μM) exp2
[5] = average of the experiments, read-out: CI50 (μM) aver.
[6] = 10 minutes at 37° C., experiment 3, read-out: CI50 (μM) exp3

Compound	IC50 (human MC1 receptor; [3])	IC50 (human MC1 receptor; [4])	IC50 (human MC1 receptor; [5])	IC50 (human MC1 receptor; [6])	antagonist activity (receptor MC1 [1])	Ki (receptor MC1 [2])
CCCCCCCCCCCCCCCC(=O)N[C@@H](CCCNC(=N)N)C(=O)N1CCC[C@H]1C(N)=O [Compound 49, Palm-Arg-Pro-NH2] (Palmitoyl-Arg-Pro-NH2)	20 µM	26 µM	23 µM			
[dW]-Arg-Leu-NH2					has an antagonist activity	
H-MP[dF]R[dW]FKPV-NH2 [153 N-6]						0.011 µM
CCCCCCCCCCCCCCCC(=O)N[C@@H](CCCNC(=N)N)C(=O)N[C@@H](CCCNC(=N)N)C(N)=O [Compound 41, Palm-Arg-Arg-NH2] (Palmitoyl-Arg-Arg-NH2)	36 µM	17 µM	26 µM			
CCCCCCCCCCCCCCCC(=O)N[C@@H](CCCNC(=N)N)C(=O)N[C@@H](Cc1c[nH]cn1)C(N)=O [Compound 39, Palm-Arg-His-NH2] (Palmitoyl-Arg-His-NH2)	29 µM	4.6 µM	13 µM	4.4 µM		

Second part, led by results:

IC50 (human MC1 receptor; [3])	IC50 (human MC1 receptor; [4])	IC50 (human MC1 receptor; [5])	IC50 (human MC1 receptor; [6])	Compound	antagonist activity (receptor MC1 [1])	Ki (receptor MC1 [2])
48 µM	9.6 µM	29 µM		CCCCCCCCCCCCCCCC(=O)N[C@@H](CCCNC(=N)N)C(=O)N[C@@H](CCCCN)C(N)=O [Compound 50, Palm-Arg-Lys-NH2] (Palmitoyl-Arg-Lys-NH2)		
45 µM	5.5 µM	17 µM	1 µM	CCCCCCCCCCCCCCCC(=O)N[C@@H](CO)C(=O)N1CCC[C@H]1C(N)=O [Compound 125, Palm-Ser-Pro-NH2] (Palmitoyl-Ser-Pro-NH2)		
